Counter-ions that a name gives are not always drawn. Like-named read-outs stand apart in the source and are kept apart here.
Assays:
[1] = biological target: T1, gluthathione reductase (GR) (Homo sapiens, UniProt P00390); assay: Inhibition of recombinant GR (GSSG assay); type: biochemical
T1 sequence (P00390 44-522): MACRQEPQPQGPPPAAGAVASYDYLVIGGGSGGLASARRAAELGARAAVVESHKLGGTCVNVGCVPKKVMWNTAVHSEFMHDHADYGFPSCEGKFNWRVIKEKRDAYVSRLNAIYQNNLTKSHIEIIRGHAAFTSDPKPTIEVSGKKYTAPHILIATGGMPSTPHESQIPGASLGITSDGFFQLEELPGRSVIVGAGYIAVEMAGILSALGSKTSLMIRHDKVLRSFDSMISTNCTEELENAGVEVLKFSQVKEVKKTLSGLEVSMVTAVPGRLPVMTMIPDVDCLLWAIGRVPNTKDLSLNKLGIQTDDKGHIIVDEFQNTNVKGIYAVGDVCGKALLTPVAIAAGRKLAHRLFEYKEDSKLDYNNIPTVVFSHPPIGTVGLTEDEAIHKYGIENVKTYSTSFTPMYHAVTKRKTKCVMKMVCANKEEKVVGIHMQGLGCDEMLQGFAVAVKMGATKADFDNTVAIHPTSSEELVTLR
Method: (§1) Small molecule inhibition of recombinant thioredoxin reductase 1 (TrxR1) and gluthathione reductase (GR) was examined in 96-well plate format. 15 nM TrxR1 was incubated in the presence of 250 μM NADPH, 0.1 mg/ml BSA, and various concentrations of the compound of Example 1 (1% DMSO final) in 50 mM Tris (pH 7.5) and 2 mM EDTA buffer for 15 minutes. Following the incubation period, 2.5 mM DTNB was added to each well and the change in O.D. at 412 nm was followed. Percent activity was determined using DMSO vehicle and no TrxR1 (blank) controls. 2 nM GR was incubated in the presence of 250 μM NADPH, 0.1 mg/ml BSA, and various concentrations of compounds (1% DMSO final) in 50 mM Tris (pH 7.5) and 2 mM EDTA buffer for 15 minutes. Following the incubation period, 1 mM GSSG was added to each well and the change in O.D. at 340 nm was followed. Percent activity was determined using DMSO vehicle and no GR (blank) controls.

[2] = biological target: T2, recombinant thioredoxin reductase 1 (TrxR1) (Homo sapiens, UniProt Q16881); assay: Inhibition of recombinant TrxR1 (DTNB assay); type: biochemical
T2 sequence (Q16881 1-649): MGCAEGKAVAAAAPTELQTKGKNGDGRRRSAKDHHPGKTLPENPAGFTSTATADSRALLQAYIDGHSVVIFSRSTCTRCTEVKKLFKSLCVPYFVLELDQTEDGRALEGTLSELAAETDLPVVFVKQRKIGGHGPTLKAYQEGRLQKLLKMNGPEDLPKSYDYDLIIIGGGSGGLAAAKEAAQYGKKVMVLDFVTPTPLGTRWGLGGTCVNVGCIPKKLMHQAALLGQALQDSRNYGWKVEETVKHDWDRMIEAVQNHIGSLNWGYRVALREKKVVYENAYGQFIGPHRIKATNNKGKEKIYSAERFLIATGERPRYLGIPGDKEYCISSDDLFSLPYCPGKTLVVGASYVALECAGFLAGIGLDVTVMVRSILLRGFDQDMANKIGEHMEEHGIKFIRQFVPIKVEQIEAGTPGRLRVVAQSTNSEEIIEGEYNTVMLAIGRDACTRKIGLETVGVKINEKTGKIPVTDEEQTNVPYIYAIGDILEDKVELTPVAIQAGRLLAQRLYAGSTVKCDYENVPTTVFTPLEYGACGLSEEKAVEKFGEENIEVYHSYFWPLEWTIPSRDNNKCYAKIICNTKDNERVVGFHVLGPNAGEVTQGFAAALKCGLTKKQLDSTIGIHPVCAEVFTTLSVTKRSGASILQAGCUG
Method: as §1

[3] = Biological Example 1, 2 nM GR, 250 μM NADPH, 15 minutes incubation
[4] = Biological Example 4, assays of Biological Example 1
[5] = Biological Example 1, 15 nM TrxR1, 250 μM NADPH, 15 minutes incubation, read-out: TrxR inhibition
[6] = Biological Example 4, assays of Biological Example 1, read-out: TrxR Inhibition

IC50 [1, 3] [nM]	IC50 [1, 4] [nM]	IC50 [2, 5] [nM]	IC50 [2, 6] [nM]	Compound
> 100000	> 100000	1310	1990	NS(=O)(=O)c1cccc(CN2[C@@H]3C(=O)C=C[C@H]2[C@@H]2C(=O)N(c4ccccc4)C(=O)[C@@H]23)c1 (relative stereo) [Example 67, exo-3-((3,5,10-Trioxo-4-phenyl-4,11-diazatricyclo[5.3.1.0^2,6]undec-8-en-11-yl)methyl)benzenesulfonamide Trifluoroacetate]
> 100000	> 100000	1880	2240	CS(=O)(=O)c1cccc(CN2[C@@H]3C(=O)C=C[C@H]2[C@@H]2C(=O)N(c4ccccc4)C(=O)[C@@H]23)c1 (relative stereo) [Example 68, exo-11-(3-(Methylsulfonyl)benzyl)-4-phenyl-4,11-diazatricyclo[5.3.1.0^2,6]-undec-9-ene-3,5,8-trione Trifluoroacetate]
> 100000	> 100000	2260	2620	Cc1cccc(CN2[C@@H]3C(=O)C=C[C@H]2[C@@H]2C(=O)N(c4cccc(N5CCOCC5)c4)C(=O)[C@@H]23)c1 (relative stereo) [Example 70, exo-11-(3-Methylbenzyl)-4-(3-(4-morpholino)phenyl)-4,11-diazatricyclo-[5.3.1.0^2,6]undec-9-ene-3,5,8-trione Trifluoroacetate]
	> 100000		3040	CC(=O)Nc1ccc(N2C(=O)[C@@H]3[C@H](C2=O)[C@H]2C(=O)C=C[C@@H]3N2Cc2cccc(C)c2)cc1 (stereo in doubt) [Example 57, N-(4-(11-(3-Methylbenzyl)-3,5,10-trioxo-4,11-diazatricyclo[5.3.1.0^2,6]undec-8-en-4-yl)phenyl)acetamide Trifluoroacetate]
	41400		1250	CC1=CC(=O)C2C3C(=O)N(c4ccccc4)C(=O)C3C1N2Cc1ccccc1 (centres unmarked) [Example 12, 9-Benzyl-7-methyl-2-phenyl-3a,4,8,8a-tetrahydro-4,8-epiminocyclohepta[c]-pyrrole-1,3,5(2H)-trione Trifluoroacetate]
	> 100000		7820	CC1=CC(=O)[C@@H]2C3C(=O)N(C4CCCCC4)C(=O)C3[C@H]1N2Cc1ccccc1 (stereo partly drawn) [Example 13, endo-11-Benzyl-4-cyclohexyl-10-methyl-4,11-diazatricyclo[5.3.1.0^2,6]undec-9-ene-3,5,8-trione Trifluoroacetate]
> 100000	> 100000	1450	3330	CC1=CC(=O)C2C3C(=O)N(Cc4ccccc4)C(=O)C3C1N2Cc1ccccc1 (centres unmarked) [Example 15, 4,11-Dibenzyl-10-methyl-4,11-diazatricyclo[5.3.1.0^2,6]undec-9-ene-3,5,8-trione Trifluoroacetate]
> 100000	> 100000	3700	940	O=C1C=CC2C3C(=O)N(c4ccccc4)C(=O)C3C1N2Cc1ccccc1Br (centres unmarked) [Example 20, 11-(2-Bromobenzyl)-4-phenyl-4,11-diazatricyclo[5.3.1.0^2,6]undec-9-ene-3,5,8-trione Trifluoroacetate]
	29800		2710	O=C1C=C[C@H]2C3C(=O)N(c4ccccc4)C(=O)C3[C@@H]1N2Cc1cccc(F)c1 (some centres unmarked) [Example 28]
	68500		1470	N#Cc1cccc(CN2C3C=CC(=O)C2C2C(=O)N(c4ccccc4)C(=O)C23)c1 (centres unmarked) [Example 36, 3-((4-Phenyl-3,5,10-trioxo-4,11-diazatricyclo[5.3.1.0^2,6]undec-8-en-11-yl)-methyl)benzonitrile Trifluoroacetate]

Continued, compound first:

Compound	IC50 [1, 3] [nM]	IC50 [1, 4] [nM]	IC50 [2, 5] [nM]	IC50 [2, 6] [nM]
CC(c1ccccc1)N1C2C=CC(=O)C1C1C(=O)N(c3ccccc3)C(=O)C12 (centres unmarked) [Example 5, 4-Phenyl-11-(1-phenylethyl)-4,11-diazatricyclo[5.3.1.0^2,6]undec-9-ene-3,5,8-trione Trifluoroacetate]		> 100000		2490
O=C1C=CC2C3C(=O)N(c4ccccc4)C(=O)C3C1N2Cc1ccc(Br)cc1 (centres unmarked) [Example 6, 11-(4-Bromobenzyl)-4-phenyl-4,11-diazatricyclo[5.3.1.0^2,6]undec-9-ene-3,5,8-trione Trifluoroacetate]	61900	31300	2120	570
O=C1C=CC2C3C(=O)N(c4ccccc4)C(=O)C3C1N2Cc1ccc(F)cc1 (centres unmarked) [Example 8, 11-(4-Fluorobenzyl)-4-phenyl-4,11-diazatricyclo[5.3.1.0^2,6]undec-9-ene-3,5,8-trione Trifluoroacetate]		28500		2030
O=C1C=CC2C3C(=O)N(c4ccccc4)C(=O)C3C1N2Cc1cccc(F)c1F (stereo not drawn) [Example 31, exo-11-(2,3-Difluorobenzyl)-4-phenyl-4,11-diazatricyclo[5.3.1.0^2,6]undec-9-ene-3,5,8-trione Trifluoroacetate]		> 100000		1060
O=C1C=CC2C3C(=O)N(c4ccccc4)C(=O)C3C1N2Cc1cccc(C(F)(F)F)c1 (centres unmarked) [Example 32, 4-Phenyl-11-(3-trifluorobenzyl)-4,11-diazatricyclo[5.3.1.0^2,6]undec-9-ene-3,5,8-trione Trifluoroacetate]		35800		1440
Cc1cc(C)cc(CN2C3C=CC(=O)C2C2C(=O)N(c4ccccc4)C(=O)C23)c1 (stereo not drawn) [Example 33, exo-11-(3,5-Dimethylbenzyl)-4-phenyl-4,11-diazatricyclo[5.3.1.0^2,6]undec-9-ene-3,5,8-trione Trifluoroacetate]		> 100000		1330
O=C1C=CC2C3C(=O)N(c4ccccc4)C(=O)C3C1N2Cc1cccc(Br)c1 (stereo not drawn) [Example 34, exo-11-(3-Bromobenzyl)-4-phenyl-4,11-diazatricyclo[5.3.1.0^2,6]undec-9-ene-3,5,8-trione Trifluoroacetate]		> 100000		1230
Cc1cccc(CN2C3C=CC(=O)C2C2C(=O)N(c4ccccc4)C(=O)C23)c1F (stereo not drawn) [Example 35, exo-11-(2-Fluoro-3-methylbenzyl)-4-phenyl-4,11-diazatricyclo[5.3.1.0^2,6]-undec-9-ene-3,5,8-trione Trifluoroacetate]		> 100000		1060
Cc1cc(CN2C3C=CC(=O)C2C2C(=O)N(c4ccccc4)C(=O)C23)ccc1F (stereo not drawn) [Example 37, exo-11-(4-Fluoro-3-methylbenzyl)-4-phenyl-4,11-diazatricyclo[5.3.1.0^2,6]-undec-9-ene-3,5,8-trione Trifluoroacetate]		> 100000		930
Cc1ccc(F)c(CN2C3C=CC(=O)C2C2C(=O)N(c4ccccc4)C(=O)C23)c1F (stereo not drawn) [Example 38, endo-11-(2,6-Difluoro-3-methylbenzyl)-4-phenyl-4,11-diazatricyclo-[5.3.1.0^2,6]undec-9-ene-3,5,8-trione Trifluoroacetate]		12300		1360
Cc1ccc(F)c(CN2C3C=CC(=O)C2C2C(=O)N(c4ccccc4)C(=O)C23)c1F (stereo not drawn) [Example 39, exo-11-(2,6-Difluoro-3-methylbenzyl)-4-phenyl-4,11-diazatricyclo[5.3.1.0^2,6]-undec-9-ene-3,5,8-trione Trifluoroacetate]		> 100000		1290
O=C1C=CC2C3C(=O)N(c4ccccc4)C(=O)C3C1N2Cc1cc(Cl)ccc1F (stereo not drawn) [Example 40, exo-11-(5-Chloro-2-fluorobenzyl)-4-phenyl-4,11-diazatricyclo[5.3.1.0^2,6]-undec-9-ene-3,5,8-trione Trifluoroacetate]		31600		770

From US10881653B2, “Tricyclic compounds and their use in the treatment of cancer” (The United States of America, as represented by the …, priority 2015, dated 2021)
